In US20240228504A1, “SUBSTITUTED TRICYCLIC AMIDES, ANALOGUES THEREOF, AND METHODS USING SAME” (Arbutus Biopharma Corporation, priority 2020, published 2024) one finds EC50 data, which are given here for 25 molecules.

Molecules are shown by their SMILES. pEC50: −log10 of the molar value.

The subject of the first assay is HBV rcDNA in HepDE19 cells. The assay is described as follows: HepDE19 assay with bDNA quantitation of HBV rcDNA. It is filed as cell-based, hepatitis B virus. The note with it: HepDE19 assay, inhibition of rcDNA formation, bDNA quantitation; read-out: DE-19bDNA EC50.
As for `CN(C(=O)c1cc2c(C(F)F)cccc2[nH]1)C1CNCc2[nH]c(=O)c3cc(F)ccc3c21` (single isomer, unassigned) [Compound 209, N-(8-Fluoro-6-oxo-1,2,3,4,5,6-hexahydrobenzo[c][1,7]naphthyridin-1-yl)-4-(difluoromethyl)-N-methyl-1H-indole-2-carboxamide], the pEC50 is 5.36.

On to `CN(C(=O)c1cc2c(C(F)F)cccc2[nH]1)C1CNCc2[nH]c(=O)c3cc(F)ccc3c21` (single isomer, unassigned) [Compound 210, N-(8-Fluoro-6-oxo-1,2,3,4,5,6-hexahydrobenzo[c][1,7]naphthyridin-1-yl)-4-(difluoromethyl)-N-methyl-1H-indole-2-carboxamide], for which the negative logarithm of the EC50 (pEC50) was 7.40.

As for `CN(C(=O)c1cc2cc(F)c(C(F)F)cc2[nH]1)C1COCc2[nH]c(=O)c3cc(F)ccc3c21` (single isomer, unassigned) [Compound 217, 6-(Difluoromethyl)-5-fluoro-N-(8-fluoro-6-oxo-1,4,5,6-tetrahydro-2H-pyrano[3,4-c]isoquinolin-1-yl)-N-methyl-1H-indole-2-carboxamide], the pEC50 was 6.06.

As for `CN(C(=O)c1cc2cc(F)c(C(F)F)cc2[nH]1)C1COCc2[nH]c(=O)c3cc(F)ccc3c21` (single isomer, unassigned) [Compound 218, 6-(Difluoromethyl)-5-fluoro-N-(8-fluoro-6-oxo-1,4,5,6-tetrahydro-2H-pyrano[3,4-c]isoquinolin-1-yl)-N-methyl-1H-indole-2-carboxamide], the negative logarithm of the EC50 (pEC50) is 7.52.

On to `CN(C(=O)c1cc2cc(F)c(C(F)F)cc2[nH]1)C1CNCc2[nH]c(=O)c3cc(F)c(F)cc3c21` (single isomer, unassigned) [Compound 220, N-(8,9-Difluoro-6-oxo-1,2,3,4,5,6-hexahydrobenzo[c][1,7]naphthyridin-1-yl)-6-(difluoromethyl)-5-fluoro-N-methyl-1H-indole-2-carboxamide], for which the negative-log EC50 (pEC50) was 5.61.

As to `CN(C(=O)c1cc2cc(F)c(C(F)F)cc2[nH]1)C1CNCc2[nH]c(=O)c3cc(F)c(F)cc3c21` (single isomer, unassigned) [Compound 221, N-(8,9-Difluoro-6-oxo-1,2,3,4,5,6-hexahydrobenzo[c][1,7]naphthyridin-1-yl)-6-(difluoromethyl)-5-fluoro-N-methyl-1H-indole-2-carboxamide], the pEC50 is 7.52.

Consider `CN(C(=O)c1cc2ccc(F)cn2c1)C1CNCc2[nH]c(=O)c3cc(F)c(F)cc3c21` (single isomer, unassigned) [Compound 222, N-(8,9-Difluoro-6-oxo-1,2,3,4,5,6-hexahydrobenzo[c][1,7]naphthyridin-1-yl)-6-fluoro-N-methylindolizine-2-carboxamide], for which the pEC50 is 5.15.

As to `CN(C(=O)c1cc2ccc(F)cn2c1)C1CNCc2[nH]c(=O)c3cc(F)c(F)cc3c21` (single isomer, unassigned) [Compound 223, N-(8,9-Difluoro-6-oxo-1,2,3,4,5,6-hexahydrobenzo[c][1,7]naphthyridin-1-yl)-6-fluoro-N-methylindolizine-2-carboxamide], the pEC50 was 7.52.

`CN(C(=O)c1cc2c(C(F)F)cc(F)cc2[nH]1)C1COCc2[nH]c(=O)c3cc(F)ccc3c21` (single isomer, unassigned) [Compound 238, 4-(Difluoromethyl)-6-fluoro-N-(8-fluoro-6-oxo-1,4,5,6-tetrahydro-2H-pyrano[3,4-c]isoquinolin-1-yl)-N-methyl-1H-indole-2-carboxamide]: the negative-log EC50 (pEC50) is 5.85.

`CN(C(=O)c1cc2c(C(F)F)cc(F)cc2[nH]1)C1COCc2[nH]c(=O)c3cc(F)ccc3c21` (single isomer, unassigned) [Compound 239, 4-(Difluoromethyl)-6-fluoro-N-(8-fluoro-6-oxo-1,4,5,6-tetrahydro-2H-pyrano[3,4-c]isoquinolin-1-yl)-N-methyl-1H-indole-2-carboxamide]: the pEC50 is 8.00.

Consider `CN(C(=O)c1cc2c(C(F)F)c(F)ccc2[nH]1)C1COCc2[nH]c(=O)c3cc(F)ccc3c21` (single isomer, unassigned) [Compound 255, 4-(Difluoromethyl)-5-fluoro-N-(8-fluoro-6-oxo-1,4,5,6-tetrahydro-2H-pyrano[3,4-c]isoquinolin-1-yl)-N-methyl-1H-indole-2-carboxamide], for which the negative logarithm of the EC50 (pEC50) is 6.17.

For the molecule `CN(C(=O)c1cc2c(C(F)F)c(F)ccc2[nH]1)C1COCc2[nH]c(=O)c3cc(F)ccc3c21` (single isomer, unassigned) [Compound 256, 4-(Difluoromethyl)-5-fluoro-N-(8-fluoro-6-oxo-1,4,5,6-tetrahydro-2H-pyrano[3,4-c]isoquinolin-1-yl)-N-methyl-1H-indole-2-carboxamide], the pEC50 is 8.00.

Turning to `CN(C(=O)c1cc2c(C(F)F)cc(F)cc2[nH]1)C1CNCc2[nH]c(=O)c3cc(F)c(F)cc3c21` (single isomer, unassigned) [Compound 257, N-(8,9-Difluoro-6-oxo-1,2,3,4,5,6-hexahydrobenzo[c][1,7]naphthyridin-1-yl)-4-(difluoromethyl)-6-fluoro-N-methyl-1H-indole-2-carboxamide], the pEC50 was 5.66.

In the case of `CN(C(=O)c1cc2c(C(F)F)cc(F)cc2[nH]1)C1CNCc2[nH]c(=O)c3cc(F)c(F)cc3c21` (single isomer, unassigned) [Compound 258, N-(8,9-Difluoro-6-oxo-1,2,3,4,5,6-hexahydrobenzo[c][1,7]naphthyridin-1-yl)-4-(difluoromethyl)-6-fluoro-N-methyl-1H-indole-2-carboxamide], the pEC50 is 7.70.

For the molecule `CN(C(=O)c1cc2c(C(F)F)cc(F)cc2[nH]1)C1CNCc2[nH]c(=O)c3cc(F)ccc3c21` (single isomer, unassigned) [Compound 259, 4-(Difluoromethyl)-6-fluoro-N-(8-fluoro-6-oxo-1,2,3,4,5,6-hexahydrobenzo[c][1,7]naphthyridin-1-yl)-N-methyl-1H-indole-2-carboxamide], the pEC50 is 5.29.

Turning to `CN(C(=O)c1cc2c(C(F)F)cc(F)cc2[nH]1)C1CNCc2[nH]c(=O)c3cc(F)ccc3c21` (single isomer, unassigned) [Compound 260, 4-(Difluoromethyl)-6-fluoro-N-(8-fluoro-6-oxo-1,2,3,4,5,6-hexahydrobenzo[c][1,7]naphthyridin-1-yl)-N-methyl-1H-indole-2-carboxamide], the pEC50 is 7.22.

For `CN(C(=O)c1cc2c(C(F)F)c(F)ccc2[nH]1)C1CNCc2[nH]c(=O)c3cc(F)c(F)cc3c21` (single isomer, unassigned) [Compound 264, N-(8,9-Difluoro-6-oxo-1,2,3,4,5,6-hexahydrobenzo[c][1,7]naphthyridin-1-yl)-4-(difluoromethyl)-5-fluoro-N-methyl-1H-indole-2-carboxamide], the pEC50 is 5.08.

As to `CN(C(=O)c1cc2c(C(F)F)c(F)ccc2[nH]1)C1CNCc2[nH]c(=O)c3cc(F)c(F)cc3c21` (single isomer, unassigned) [Compound 265, N-(8,9-Difluoro-6-oxo-1,2,3,4,5,6-hexahydrobenzo[c][1,7]naphthyridin-1-yl)-4-(difluoromethyl)-5-fluoro-N-methyl-1H-indole-2-carboxamide], the pEC50 was 7.70.

In the case of `CN(C(=O)c1cc2c(C(F)F)c(F)ccc2[nH]1)C1CNCc2[nH]c(=O)c3cc(F)ccc3c21` (single isomer, unassigned) [Compound 271, 4-(Difluoromethyl)-5-fluoro-N-(8-fluoro-6-oxo-1,2,3,4,5,6-hexahydrobenzo[c][1,7]naphthyridin-1-yl)-N-methyl-1H-indole-2-carboxamide], the pEC50 was 5.17.

As for `CN(C(=O)c1cc2c(C(F)F)c(F)ccc2[nH]1)C1CNCc2[nH]c(=O)c3cc(F)ccc3c21` (single isomer, unassigned) [Compound 272, 4-(Difluoromethyl)-5-fluoro-N-(8-fluoro-6-oxo-1,2,3,4,5,6-hexahydrobenzo[c][1,7]naphthyridin-1-yl)-N-methyl-1H-indole-2-carboxamide], the negative-log EC50 (pEC50) was 7.15.

Take `CN(C(=O)c1ccc(-c2cccc(F)c2)cc1)C1CNCc2[nH]c(=O)c3cc(F)c(F)cc3c21` (single isomer, unassigned) [Compound 301, N-(8,9-Difluoro-6-oxo-1,2,3,4,5,6-hexahydrobenzo[c][1,7]naphthyridin-1-yl)-3′-fluoro-N-methyl-[1,1′-biphenyl]-4-carboxamide]: the pEC50 was 4.61.

For the molecule `CN(C(=O)c1ccc(-c2cccc(F)c2)cc1)C1CNCc2[nH]c(=O)c3cc(F)c(F)cc3c21` (single isomer, unassigned) [Compound 302, N-(8,9-Difluoro-6-oxo-1,2,3,4,5,6-hexahydrobenzo[c][1,7]naphthyridin-1-yl)-3′-fluoro-N-methyl-[1,1′-biphenyl]-4-carboxamide], the pEC50 was 5.97.

Consider `CNc1nc2c(c3cc(F)c(F)cc13)C(N(C)C(=O)c1cc3cc(F)c(F)cc3[nH]1)COC2` (single isomer, unassigned) [Compound 333, N-(8,9-Difluoro-6-(methylamino)-1,4-dihydro-2H-pyrano[3,4-c]isoquinolin-1-yl)-5,6-difluoro-N-methyl-1H-indole-2-carboxamide], for which the pEC50 is 6.28.

The same assay, now with this note: Hepatitis B virus, HepDE19, HepDE19 assay, inhibition of rcDNA formation, bDNA quantitation; read-out: DE-19bDNA EC50.
In the case of `CN(C(=O)c1cccc(-c2cccc(F)c2)c1)C1CNCc2[nH]c(=O)c3cc(F)c(F)cc3c21` (single isomer, unassigned) [Compound 304, N-(8,9-Difluoro-6-oxo-1,2,3,4,5,6-hexahydrobenzo[c][1,7]naphthyridin-1-yl)-3′-fluoro-N-methyl-[1,1′-biphenyl]-3-carboxamide], the negative logarithm of the EC50 (pEC50) is 4.70.

In the case of `CNS(=O)(=O)c1cccc(C(=O)N(C)C2CNCc3[nH]c(=O)c4cc(F)c(F)cc4c32)c1` (single isomer, unassigned) [Compound 319, N-(8,9-Difluoro-6-oxo-1,2,3,4,5,6-hexahydrobenzo[c][1,7]naphthyridin-1-yl)-N-methyl-3-(N-methylsulfamoyl)benzamide], the pEC50 was 5.17.

Broadly, the pEC50 is the negative decadic logarithm of the EC50, by convention in mol/L.
